# Measured values: patent US11466044B2 (WAYNE STATE UNIVERSITY, priority 2017, dated 2022)
# Like-named read-outs stand apart in the source and are kept apart here.
# How the values were obtained:
# [1] = tested on: E coli wild type; assay: MIC by broth microdilution, wild type E coli; type: cell-based; conditions: for MIC: Escherichia coli
# [2] = tested on: MRSA; assay: MIC by broth microdilution, MRSA isolates; type: cell-based; conditions: Table 1 (Example 2)
# [3] = tested on: mitochondrial ribosome (human chimeric); type: biochemical; conditions: mitochondrial, read-out: IC50 Mit
# Excerpt: (§1) The antiribosomal activity of these compounds was investigated with cell-free translation assays using both wild type bacterial ribosomes and hybrid ribosomes carrying eukaryotic decoding A sites enabling the prediction of selectivity.
# [4] = tested on: cytosolic ribosome (human chimeric); type: biochemical; conditions: cytosolic, read-out: IC50 Cyt
# Excerpt: as §1
# [5] = tested on: wild type bacterial ribosomes; assay: in-vitro translation assay, bacterial ribosomes; type: biochemical; conditions: bacterial ribosome, read-out: IC50 Bac
# Excerpt: as §1
# [6] = tested on: M. smegmatis SZ380; assay: MIC by broth microdilution, M. smegmatis
# [7] = tested on: P aeruginosa; assay: MIC by broth microdilution, P aeruginosa isolates; type: cell-based, Pseudomonas aeruginosa; conditions: Table 1 (Example 2)
# [8] = tested on: E coli carrying specific resistance determinants; assay: MIC by broth microdilution, E coli carrying specific resistance determinants; type: cell-based; conditions: for MIC APH(3)-VI / MIC APH(3′)-I / MIC APH(3′)-II / MIC APH(3′)-III: Table 3 (Example 1); for MIC: Escherichia coli
# [9] = ATCC25922, strain AG212 E. coli (ATCC25922), read-out: MIC AG212 E. coli
# [10] = read-out: MIC AG037 E. coli APH(3′)-III
# [11] = clinical isolate AG160 WT, Table 2 (Example 4), read-out: MIC AG160 E. coli WT
# [12] = engineered strain pH430 WT, Table 2 (Example 4), read-out: MIC pH430 E. coli WT
# [13] = read-out: MIC WT, WT, Table 3 (Example 2)
structure (smiles),measurement,setting,value
NC[C@@H]1O[C@H](O[C@@H]2C(O)[C@H](O[C@@H]3C(O)[C@H](N)CC(N)[C@H]3O[C@H]3OC4C(O)CCO[C@H]4[C@H](O)C3N)O[C@@H]2CO)C(N)C(O)[C@@H]1O (stereo partly drawn) [Compound 211],MIC,[1]; [9],32 to 64 µg/mL
"CC1CC(N)C2O[C@H](O[C@@H]3C(N)C[C@@H](N)C(O)[C@H]3O[C@@H]3O[C@H](CO)[C@H](O[C@H]4O[C@@H](CN)[C@@H](O)C(O)C4N)C3O)C(N)[C@@H](O)[C@@H]2O1 (stereo partly drawn) [Compound 150, 4-O-(2′,6′-Diamino-4′,8′-anhydro-2′,6′,7′,9′-tetradeoxy-D-erythro-α-D-gluco-nonapyranosyl)-5-O-(β-paramobiosyl)-2-deoxystreptamine.6AcOH]",MIC50 MRSA AG38,[2]; strain AG38,128 µg/mL
same,MIC50 MRSA AG39,[2]; strain AG39,128 µg/mL
same,MIC50 MRSA AG42,[2]; strain AG42,128 µg/mL
same,MIC50 MRSA AG44,[2]; strain AG44,128 µg/mL
same,IC50,[3]; Table 3 (Example 2),4.1 µM
same,IC50,[4]; Table 3 (Example 2),12 µM
same,IC50,[5]; Table 3 (Example 2),0.48 µM
same,MIC SZ380 M. smegmatis,[6]; strain SZ380 Mycobacterium smegmatis,16 to 32 µg/mL
same,MIC50 E coli BM13 (AG06) wt,"[1]; BM13 (AG06) wt, Table 2A (Example 2)",64 to 128 µg/mL
same,MIC WT,"[1]; WT, Table 3 (Example 2)",64 to 128 µg/mL
same,MIC50 E coli pH430 WT,"[1]; pH430 WT, Table 2B (Example 2)",64-128 μg/ml
same,MIC50 E coli AG01,"[1]; strain AG01, Table 1 (Example 2)",>128 µg/mL
same,MIC50 E coli AG03,"[1]; strain AG03, Table 1 (Example 2)",>128 µg/mL
same,MIC50 E coli AG55,"[1]; strain AG55, Table 1 (Example 2)",>128 µg/mL
same,MIC50 P aeruginosa AG31,[7]; strain AG31,>128 µg/mL
same,MIC50 P aeruginosa AG32,[7]; strain AG32,>128 µg/mL
same,MIC50 P aeruginosa AG33,[7]; strain AG33,>128 µg/mL
same,MIC50 P aeruginosa AG86,[7]; strain AG86,>128 µg/mL
NC[C@H]1O[C@H](O[C@H]2[C@H](O[C@@H]3O[C@H](CO)[C@@H](O)[C@H]3O)[C@@H](O)[C@H](N)C[C@@H]2N)[C@H](N)C[C@@H]1O [Compound 047],IC50,[3]; Table 3 (Example 1),325 µM
same,IC50,[4]; Table 3 (Example 1),293 µM
same,IC50,[5]; Table 3 (Example 1),0.1 µM
same,MIC APH(3)-VI,[8],4 µg/mL
same,MIC APH(3′)-I,[8],>64 µg/mL
same,MIC APH(3′)-II,[8],2 to 4 µg/mL
same,MIC APH(3′)-III,[8],>64 µg/mL
same,MIC WT,"[1]; WT, Table 3 (Example 1)",2 to 4 µg/mL
NCC1OC(OC2C(N)CC(N)C(O)C2OC2OC(CNC=O)C(O)C2O)C(N)C(O)C1O (stereo not drawn) [Compound 130],IC50,[3]; Table 3 (Example 1),364 µM
same,IC50,[4]; Table 3 (Example 1),359 µM
same,IC50,[5]; Table 3 (Example 1),0.24 µM
same,MIC,[8]; [10],> 128 µg/mL
same,MIC,[8]; read-out: MIC AG163 E. coli APH(3′)-I,> 128 µg/mL
same,MIC,[8]; read-out: MIC AG166 E. coli APH(3′)-II,> 128 µg/mL
same,MIC,[8]; read-out: MIC APH(3)-VI,> 64 µg/mL
same,MIC,[8]; read-out: MIC APH(3′)-I,> 64 µg/mL
same,MIC,[8]; read-out: MIC APH(3′)-II,> 64 µg/mL
same,MIC,[8]; read-out: MIC APH(3′)-III,> 64 µg/mL
same,MIC,[8]; read-out: MIC pH421 E. coli APH(3′)-I,> 64 µg/mL
same,MIC,[8]; read-out: MIC pH422 E. coli APH(3′)-II,> 64 µg/mL
same,MIC,[8]; read-out: MIC pH423 E. coli APH(3′)-VI,> 64 µg/mL
same,MIC,"[1]; WT, Table 3 (Example 1), read-out: MIC WT",4 µg/mL
same,MIC,[1]; [11],16 µg/mL
same,MIC,[1]; [12],4 µg/mL
NCC1O[C@H](O[C@@H]2C(O)[C@H](O[C@@H]3C(O)[C@H](N)CC(N)[C@H]3O[C@H]3OC4C(O)CO[C@H]4[C@H](O)C3N)O[C@@H]2CO)C(N)[C@H](O)[C@@H]1O (stereo partly drawn) [DC-204],IC50,[3]; Table 3 (Example 2),0.2 µM
same,IC50,[4]; Table 3 (Example 2),131 µM
same,MIC,[8]; read-out: MIC AAC(6′),16 µg/mL
same,MIC,[8]; read-out: MIC ANT(4′),4 to 8 µg/mL
same,MIC,[8]; read-out: MIC APH(3′)-II,16 to 32 µg/mL
same,MIC,[8]; read-out: MIC APH(3′)-VI,16 µg/mL
same,MIC,[1]; [13],8 µg/mL
NC[C@H]1O[C@H](O[C@H]2[C@H](O[C@@H]3O[C@H](CN)[C@@H](O)[C@H]3O)[C@@H](O)[C@H](N)C[C@@H]2N)[C@H](N)[C@@H](O)[C@@H]1O [Compound 048],IC50,[3]; Table 3 (Example 1),76 µM
same,IC50,[5]; Table 3 (Example 1),0.09 µM
same,MIC APH(3)-VI,[8],64 µg/mL
same,MIC APH(3′)-I,[8],>64 µg/mL
same,MIC APH(3′)-II,[8],>64 µg/mL
same,MIC APH(3′)-III,[8],>64 µg/mL
same,MIC WT,"[1]; WT, Table 3 (Example 1)",2 to 4 µg/mL
NC[C@@H]1O[C@H](O[C@H]2[C@@H](O)[C@H](O[C@@H]3[C@@H](O)[C@H](N)C[C@H](N)[C@H]3O[C@H]3O[C@H](CN)[C@@H](O)C[C@H]3N)O[C@@H]2CO)[C@H](N)[C@@H](O)[C@@H]1O [Compound 140],IC50,[3]; Table 3 (Example 1),4.6 µM
same,IC50,[4]; Table 3 (Example 1),66 µM
same,IC50,[5]; Table 3 (Example 1),0.04 µM
same,MIC APH(3)-VI,[8],1 µg/mL
same,MIC APH(3′)-I,[8],>32 µg/mL
same,MIC APH(3′)-II,[8],1 µg/mL
same,MIC APH(3′)-III,[8],32 µg/mL
same,MIC AG163 E. coli APH(3′)-I,"[8]; clinical isolate AG163 APH(3′)-I, Table 2 (Example 4)",64 µg/mL
same,MIC AG166 E. coli APH(3′)-II,"[8]; clinical isolate AG166 APH(3′)-II, Table 2 (Example 4)",1 µg/mL
same,MIC AG037 E. coli APH(3′)-III,"[8]; engineered strain AG037 APH(3′)-III, Table 2 (Example 4)",32 µg/mL
same,MIC pH421 E. coli APH(3′)-I,"[8]; engineered strain pH421 APH(3′)-I, Table 2 (Example 4)",>32 μg/ml
same,MIC pH422 E. coli APH(3′)-II,"[8]; engineered strain pH422 APH(3′)-II, Table 2 (Example 4)",1 μg/ml
same,MIC pH423 E. coli APH(3′)-VI,"[8]; engineered strain pH423 APH(3′)-VI, Table 2 (Example 4)",1 μg/ml
same,MIC WT,"[1]; WT, Table 3 (Example 1)",1 µg/mL
same,MIC AG160 E. coli WT,"[1]; clinical isolate AG160 WT, Table 2 (Example 4)",1 µg/mL
same,MIC pH430 E. coli WT,"[1]; engineered strain pH430 WT, Table 2 (Example 4)",1 μg/ml
CC[C@@H]1C(CO)O[C@H](O[C@@H]2C(N)C[C@@H](N)C(O)[C@H]2O[C@@H]2O[C@H](CO)[C@H](O[C@H]3OC(CN)[C@@H](O)C(O)C3N)C2O)[C@@H](N)C1O (stereo partly drawn) [Compound 206],MIC,[1]; [9],8 µg/mL
CC(=O)NC[C@H]1O[C@@H](O[C@@H]2C(O)[C@H](N)CC(N)[C@H]2O[C@H]2OC(CN)[C@@H](O)[C@H](O)C2N)C(O)[C@H]1O (stereo partly drawn) [Compound 129],MIC,[8]; [10],> 64 µg/mL
same,MIC,[1]; [11],64 µg/mL
same,MIC,[1]; [12],32 µg/mL
"CC(=O)O.NCC1OC(OC2C(CO)OC(OC3C(O)C(N)CC(N)C3OC3OC(CO)C(O)C(O)C3O)C2O)C(N)C(O)C1O (stereo not drawn) [Compound 118, 2′-Deamino-2′-hydroxy-paromomycin acetate salt]",MIC M. smegmatis SZ380 WT,"[6]; SZ380 WT, Table 5 (Example 3)",>128 µg/mL
same,MIC E. coli WT,"[1]; WT, Table 5 (Example 3)",32 µg/mL
NC[C@@H]1O[C@H](O[C@@H]2C(O)[C@H](O[C@@H]3C(O)[C@H](N)CC(N)[C@H]3O[C@H]3OC4C(O)CCCO[C@H]4[C@H](O)C3N)O[C@@H]2CO)C(N)C(O)[C@@H]1O (stereo partly drawn) [DC-196],IC50,[3]; Table 3 (Example 2),0.14 µM
same,IC50,[4]; Table 3 (Example 2),200 µM
same,MIC,[8]; read-out: MIC AAC(6′),4 µg/mL
same,MIC,[8]; read-out: MIC ANT(4′),2 µg/mL
same,MIC,[8]; read-out: MIC APH(3′)-II,16 µg/mL
same,MIC,[8]; read-out: MIC APH(3′)-VI,16 µg/mL
same,MIC,[1]; [13],4 µg/mL
NCC1O[C@H](O[C@@H]2C(O)[C@H](O[C@@H]3C(O)[C@H](N)CC(N)[C@H]3O[C@H]3OC4C(O)CO[C@H]4[C@H](O)C3N)O[C@@H]2CO)C(N)[C@H](O)[C@@H]1O (stereo partly drawn) [Compound 203],MIC,[1]; [9],32 µg/mL
